Measurements from patent US10517877B2, “Compounds and methods for modulating frataxin expression” (Wisconsin Alumni Research Foundation, priority 2016, dated 2019).

Experiments:
[1] = system: FXN protein in GM15850 cells; assay: Immunoblot for FXN protein in GM15850 cells; format: cell-based, human; settings: 24 hours, 1 μM, Agent 4 0.1, 0.5 or 1 μM
Experimental: (§1) In FIG. 3A, “50” refers to GM15850 cells and in FIG. 3B, “51” refers to GM15851 cells. Cells were treated as in Example 4.
(§2) Total cell extracts from cell lines were used for immunoblot analysis. Antibodies to frataxin (abcam ab110328, 1:250 dilution) or alpha-Tubulin (Cell Signaling Technologies 2144, 1:1000 dilution) were used. Signal was detected by chemiluminescence with HRP-conjugated secondary antibodies (Bio-Rad 172-1011, 1:2000 for anti-mouse frataxin and GE NA934V, 1:2000 for anti-rabbit alpha-Tubulin).

cell cycle = settings: cited from earlier work
[2] = system: FXN-GAA-Luc reporter cell line; assay: Luciferase reporter assay, FXN-GAA-Luc line (~310 GAA repeats); format: cell-based; settings: 24 hours, Agent 4 at 1 or 2 μM, other treatments 2 μM
Experimental: Treatments are 2 μM unless otherwise indicated. Results are mean±SEM (n=4).

[3] = system: MYC transcription in MM cells; settings: MM cells bearing IgH rearrangement at the MYC locus; cited from earlier work
[4] = system: frataxin (FXN) mRNA in GM15850 cells; assay: FXN mRNA by RT-PCR in GM15850 FRDA patient cell line; format: cell-based, human; settings: 1 μM, 24 hours, normalized to TBP, relative to 0.1% DMSO
Description: GM15850 and GM15851 cell lines (Epstein Barr virus transformed human B-lymphocytes) were obtained from the National Institute of General Medical Sciences (NIGMS) Human Genetic Cell Repository at the Coriell Institute for Medical Research, Camden, N.J. The GM15850 cell line was derived from a clinically affected Friedreich's ataxia patient ataxia displaying scoliosis, hypertrophic cardiomyopathy, and slurred speech, and characterized as homozygous for the GAA expansion in the frataxin gene with alleles of approximately 650 and 1030 repeats. The GM15851 cell line was derived from a clinically unaffected individual having two FRDA alleles in the normal range of GAA trinucleotide repeats (from about 6 to about 34 repeats). This clinically unaffected individual is a sibling of the clinically affected patient from which the GM15850 cell line was derived.
Cells were maintained in RPMI 1640 supplemented with 2 mM L-glutamine and 15% fetal bovine serum (FBS) at 37° C. in a humidified atmosphere of 5% CO2. Cell density was maintained between 200,000 cells/mL and 1,000,000 cells/mL. Cell growth and morphology were monitored by phase contrast microscopy and cell viability by trypan blue exclusion. To maintain cell density, cells were passaged by centrifuging at 500g for 3 minutes and resuspending the cells in fresh media. […]

[5] = system: FXN protein in GM15851 cells; assay: Immunoblot for FXN protein in GM15851 cells; format: cell-based, human; settings: 24 hours, 1 μM, Agent 4 0.1, 0.5 or 1 μM
Experimental: as §1, §2

Structure (SMILES): Cc1sc2c(c1C)C(c1ccc(Cl)cc1)=N[C@@H](CC(=O)OC(C)(C)C)c1nnc(C)n1-2 [JQ1]
- FXN protein (immunoblot) [1]: Neither polyamide alone (3), nor JQ1, nor the unconjugated treatment induced increased production of FXN protein
- cell cycle effect (cell cycle): known to cause cell cycle arrest
- luciferase activity [2]: Significant activation was not observed
- MYC transcription [3]: inhibits MYC transcription in a dose- and time-dependent manner
- increase in FXN mRNA levels [4]: no increase

Structure (SMILES): Cc1sc2c(c1C)C(c1ccc(Cl)cc1)=N[C@@H](CC(=O)NCCOCCOCCOCCOCCOCCOCCC(=O)NCCCN(C)CCCNC(=O)CCNC(=O)c1cc(NC(=O)c3cc(NC(=O)c4nc(NC(=O)c5cc(NC(=O)CCCNC(=O)c6nc(NC(=O)c7cc(NC(=O)c8cc(NC(=O)c9sccc9Cl)cn8C)cn7C)cn6C)cn5C)cn4C)cn3C)cn1C)c1nnc(C)n1-2 [Control Conjugate 2]
- FXN protein (immunoblot) [5]: increase in FXN protein
- increase in FXN mRNA levels [4]: no increase
